As usually defined, the IC50 is the concentration that gives 50% inhibition.

Like-named read-outs stand apart in the source and are kept apart here. Bridge positions count the residues as written; N and C are the ends. Square brackets hold non-standard residues; d marks the D form. Peptide text beside a SMILES is read from it. hArg = N=C(N)NCCCC[C@H](N)C(=O)O; Cit = NC(=O)NCCC[C@H](N)C(=O)O; Aze = O=C(O)[C@@H]1CCN1

Our source for the IC50 values is patent US8168592B2 (Amgen Inc., priority 2005, dated 2012).

The target in this assay is T1, CGRP1 receptor (Homo sapiens, UniProt O60894+Q16602).
T1 construct: SK-N-MC cells express CRLR and RAMP1, which form CGRP1 receptor; endogenous in cells; host or cells: SK-N-MC human neuroblastoma cells
T1 sequence (Q16602 23-461): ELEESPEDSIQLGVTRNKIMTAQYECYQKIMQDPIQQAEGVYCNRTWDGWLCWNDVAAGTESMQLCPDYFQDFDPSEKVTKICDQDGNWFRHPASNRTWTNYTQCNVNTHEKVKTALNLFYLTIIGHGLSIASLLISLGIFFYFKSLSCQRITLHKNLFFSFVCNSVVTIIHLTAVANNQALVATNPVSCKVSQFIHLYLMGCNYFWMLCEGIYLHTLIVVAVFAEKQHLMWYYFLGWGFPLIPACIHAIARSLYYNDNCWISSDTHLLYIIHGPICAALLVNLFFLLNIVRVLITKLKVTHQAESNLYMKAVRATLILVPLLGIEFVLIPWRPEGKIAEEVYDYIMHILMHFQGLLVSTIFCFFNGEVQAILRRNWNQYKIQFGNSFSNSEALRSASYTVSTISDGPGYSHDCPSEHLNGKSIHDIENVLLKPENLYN
T1 sequence (O60894 27-148): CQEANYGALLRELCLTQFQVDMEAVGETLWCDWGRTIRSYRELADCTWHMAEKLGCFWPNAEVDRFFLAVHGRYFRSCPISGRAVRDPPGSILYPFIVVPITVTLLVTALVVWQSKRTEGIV
The assay can be described thus: in vitro CGRP1 receptor mediated cAMP assay in SK-N-MC cells. It counts as cell-based. The procedure, abridged:
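Human SK-N-MC neuroblastoma cells, which endogenously express CRLR/RAMP1, were plated two days before assay and preincubated in plasma-free medium for 15 minutes at room temperature. Cells were then lysed for 30 minutes at 37° C, and cAMP in the lysates was quantified by competitive cAMP-AP chemiluminescent ELISA.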
Background: Changes in cAMP serve as a functional read-out for many G protein-coupled receptors.

Setting [1] is: Table 2C, unconjugated peptide, read-out: Peptide IC50.

On to `CC(=O)N[C@@H](Cc1c[nH]c2ccccc12)C(=O)N[C@H](C(=O)N[C@H]1CCC(=O)NCCCC[C@@H](C(=O)NCC(=O)N[C@@H](CC(C)C)C(=O)N[C@@H](CC(C)C)C(=O)N[C@@H](CO)C(=O)N[C@@H](CCCNC(N)=O)C(=O)N[C@@H](CO)C(=O)NCC(=O)N2CC[C@H]2C(=O)N[C@H](C(=O)N[C@H](C(=O)N[C@@H](CCCCNC(=N)N)C(=O)N[C@@H](CCCCN)C(=O)N[C@@H](CC(N)=O)C(=O)N[C@@H](Cc2ccccc2)C(=O)N[C@H](C(=O)N2CCC[C@H]2C(=O)N[C@H](C(=O)N[C@@H](CC(=O)O)C(=O)N[C@H](C(=O)NCC(=O)N2CCC[C@H]2C(=O)N[C@@H](Cc2ccccc2)C(=O)N[C@@H](C)C(=O)N[C@@H](Cc2ccccc2)C(N)=O)C(C)C)[C@@H](C)O)C(C)C)C(C)C)C(C)C)NC(=O)[C@H](CC(C)C)NC(=O)[C@H](CCCCNC(=N)N)NC(=O)[C@H](Cc2c[nH]cn2)NC1=O)C(C)C` [compound 909] (Ac-WVEH[hArg]LKGLLS[Cit]SG[Aze]VV[hArg]KNFVPTDVGPFAF-NH2; lactam 3-7), for which the 50% inhibitory concentration (IC50) under setting [1] worked out at 3.45 nM.
Turning to `CC(C)C[C@H](NC(=O)CNC(=O)[C@H](C)NC(=O)[C@H](CC(C)C)NC(=O)[C@H](CCCNC(=N)N)NC(=O)[C@H](Cc1cnc[nH]1)NC(=O)[C@@H](NC(=O)[C@@H](NC(=O)[C@@H](N)Cc1c[nH]c2ccccc12)C(C)C)[C@@H](C)O)C(=O)N[C@@H](CC(C)C)C(=O)N[C@@H](CO)C(=O)N[C@@H](CCCNC(=N)N)C(=O)N[C@@H](CO)C(=O)NCC(=O)NCC(=O)N[C@H](C(=O)N[C@H](C(=O)N[C@@H](CCCCN)C(=O)N[C@@H](CC(N)=O)C(=O)N[C@@H](CC(N)=O)C(=O)N[C@@H](Cc1ccccc1)C(=O)N[C@H](C(=O)N1CCC[C@H]1C(=O)N[C@H](C(=O)N[C@@H](CC(N)=O)C(=O)N[C@H](C(=O)NCC(=O)N[C@@H](CO)C(=O)N[C@@H](CCCCN)C(=O)N[C@@H](C)C(=O)N[C@@H](Cc1ccccc1)C(N)=O)C(C)C)[C@@H](C)O)C(C)C)C(C)C)C(C)C` [compound 4], the IC50 (Table 3, unconjugated CGRP peptide analogs, n = 2-4, read-out: IC50) amounted to 0.64 nM.
In the case of “Ac-WVTHRLAGLLSRSGGVVRKNFVPTDVGSKAF-NH2 [compound 915]”, the IC50 under setting [1] was 1.15 nM.
With `CC(=O)N[C@@H](Cc1c[nH]c2ccccc12)C(=O)N[C@H](C(=O)N[C@H](C(=O)N[C@@H](Cc1cnc[nH]1)C(=O)N[C@@H](CCCNC(N)=O)C(=O)N[C@@H](CC(C)C)C(=O)N[C@@H](C)C(=O)NCC(=O)N[C@@H](CC(C)C)C(=O)N[C@@H](CC(C)C)C(=O)N[C@@H](CO)C(=O)N[C@@H](CCCNC(N)=O)C(=O)N[C@@H](CO)C(=O)NCC(=O)NCC(=O)N[C@H](C(=O)N[C@H](C(=O)N[C@@H](CCCCNC(=N)N)C(=O)N[C@@H](CCCCN)C(=O)N[C@@H](CC(N)=O)C(=O)N[C@@H](Cc1ccccc1)C(=O)N[C@H](C(=O)N1CCC[C@H]1C(=O)N[C@H](C(=O)N[C@@H](CC(=O)O)C(=O)N[C@H](C(=O)NCC(=O)N1CCC[C@H]1C(=O)N[C@@H](Cc1ccccc1)C(=O)N[C@@H](C)C(=O)N[C@@H](Cc1ccccc1)C(N)=O)C(C)C)[C@@H](C)O)C(C)C)C(C)C)C(C)C)[C@@H](C)O)C(C)C` [compound 653], the IC50 (Table 2A, read-out: IC50) turned out to be 3.22 nM.
For the compound `CC(=O)N[C@@H](Cc1c[nH]c2ccccc12)C(=O)N[C@H](C(=O)N[C@H]1CCC(=O)NCCCC[C@@H](C(=O)NCC(=O)N[C@@H](CC(C)C)C(=O)N[C@@H](CC(C)C)C(=O)N[C@@H](CO)C(=O)N[C@@H](CCCNC(N)=O)C(=O)N[C@@H](CO)C(=O)NCC(=O)NCC(=O)N[C@H](C(=O)N[C@H](C(=O)N[C@@H](CCCCNC(=N)N)C(=O)N[C@@H](CCCCN)C(=O)N[C@@H](CC(N)=O)C(=O)N[C@@H](Cc2ccccc2)C(=O)N[C@H](C(=O)N2CCC[C@H]2C(=O)N[C@H](C(=O)N[C@@H](CC(=O)O)C(=O)N[C@H](C(=O)NCC(=O)N2CCC[C@H]2C(=O)N[C@@H](Cc2ccccc2)C(=O)N[C@@H](C)C(=O)N[C@@H](Cc2ccccc2)C(N)=O)C(C)C)[C@@H](C)O)C(C)C)C(C)C)C(C)C)NC(=O)[C@H](CC(C)C)NC(=O)[C@H](CCCCNC(=N)N)NC(=O)[C@H](Cc2c[nH]cn2)NC1=O)C(C)C` [compound 908] (Ac-WVEH[hArg]LKGLLS[Cit]SGGVV[hArg]KNFVPTDVGPFAF-NH2; lactam 3-7), the half-inhibitory concentration (IC50) under setting [1] came out at 1.28 nM.
